Test results reported in patent US8642801B2 (BHI Limited Partnership, priority 2003, dated 2014).

Assays:
[1] = test system: amyloid plaques in the brains of TgCRND8 mice; test: Histological ThioS (thioflavin S) study of brain plaques, long term treatment of TgCRND8 mice; assay type: in vivo, Mouse; details: 30 mg/kg; preliminary histochemical experiments
Experimental: (§1) The following abbreviations are used to designate these animals in the present study: TgCRND8.B6AF1/J(N2); TgCRND8.B6AF1/J(N3). Male and female transgenic mice were given daily subcutaneous (compound BX) or oral (compounds BW and BZ) administrations of the appropriate compounds for 8 or 16 weeks.
(§2) Starting at 9 weeks of age (±1 week) animals received daily administration of their respective treatment for a period of 8 or 16 weeks, at a dose of 30 or 100 mg/kg at 10 ml/kg. The route of administration was subcutaneous for water-soluble compounds (Compound BX) and oral for compounds solubilized in methylcellulose 1% (MC 1%) (Compounds BW and BZ). At the end of the treatment periods, plasma and perfused brains were collected for quantification of Aβ levels.
For the ThioS studies, the plaques in the brains of the mice were quantified as follows. Mice were transcardially perfused with saline solution. […] Image analysis to quantify the number of plaques and the area occupied by these plaques was performed using Image Pro Plus software (Media Cybernetics, MD, USA). […]
Specifically, increases in the areas and numbers of plaques (relative to vehicle treated control) of 10 to 19.99% are scored as “+”. Decreases in the areas and numbers of plaques of 10 to 19.99% are scored as “−”. Additionally, changes of 9.99% or less in either direction are scored as “0”.

[2] = test system: Aβ40 and Aβ42 peptides in plasma and brain of TgCRND8 mice; test: Long term treatment in adult transgenic CRND8 mice overexpressing βAPP: Aβ levels in plasma and brain by ELISA; assay type: in vivo, Mouse
Text: Transgenic mice, TgCRND8, as those used in the short term treatment, overexpress a human APP gene with the Swedish and Indiana mutations leading to the production of high levels of the amyloid peptides and to the development of an early-onset, aggressive development of brain amyloidosis. The high levels of Aβ peptides and the relative overabundance of Aβ42 compared to Aβ40 are believed to be associated with the severe and early degenerative pathology observed. The pattern of amyloid deposition, presence of dystrophic neuritis, and cognitive deficit has been well documented in this transgenic mouse line. The levels of Aβ peptides in the brain of these mice increase dramatically as the animals age. While the total amyloid peptide levels increase from ˜1.6×10^5 pg/g of brain to ˜3.8×10^6 between 9 and 17 weeks of age.
The long-term therapeutic effects of compounds of the present invention on cerebral amyloid deposition and β-amyloid (Aβ) levels in the plasma and in the brains of transgenic mice, TgCRND8, expressing the human amyloid precursor protein (hAPP) was studied. These compounds were administered over an 8 or 16 week period at the end of which the levels of Aβ peptides in the plasma and brain of TgCRND8 animals were determined. The goal of this study was to evaluate the efficacy of the compounds at modulating the progression of the amyloidogenic process in the brain and in the plasma of a transgenic mouse model of Alzheimer's disease (AD)
The mice used in the study consisted of animals bearing one copy of the hAPP gene (+/−) from the 2nd and 3rd generation progenies (N2 and N3) derived from backcrosses from TgCRND8.FVB(N2)AJ(N3) with B6AF1/J hybrid animals. N1=TgCRND8.FVB(N2)AJ(N3)×B6AF1/J N2=TgCRND8.FVB(N2)AJ(N3).B6AF1/J(N1)×B6AF1/J N3=TgCRND8.FVB(N2)AJ(N3).B6AF1/J(N2)×B6AF1/a
as §1
Baseline animals consisted of 9±1 week old naive TgCRND8.B6AF1/J animals from the 2nd and 3rd generations. These mice were used to determine the extent of cerebral amyloid deposits and Aβ levels in the plasma and brain of naive transgenic animals at the initiation of treatment.
as §2
Animal health was monitored, samples were collected and Aβ levels were measured as described above in the short term treatment study. Compounds were scored based on their ability to modulate levels of Aβ peptides in the plasma and the cerebral soluble/insoluble levels in the brain. Levels of Aβ observed in the plasma and brain of treated animals were compared to that of vehicle-treated (water) or methylcellulose-treated control groups and ranked according to the strength of the pharmacological effect. Increases in the levels of Aβ peptides are indicated using “+” symbols, while decreases in the levels of Aβ peptides are indicated using “−” symbols. The strongest effects are recorded as “+++” or “−−−” while the weakest are shown as “+” or “−”.
Specifically, increases in the levels of Aβ (relative to vehicle treated control) of 5 to 14% are scored as “+”; increases of 15 to 29% are scored as “++”; and increases of 30% or higher are scored as “+++”. Decreases in the levels of Aβ of 5 to 14% are scored as “−”; decreases of 15 to 29% are scored as “−−”; and decreases of 30% or more are scored as “−−−”. […]

Structure (SMILES)	area occupied by the plaques (ThioS staining of brain sections) [1]	number of plaques (ThioS staining of brain sections) [1]	amount of Aβ in the brain ([2]; at both 8 and 16 weeks)	brain and plasma levels of Aβ ([2]; at 8 weeks)	plasma levels of Aβ ([2]; at 16 weeks)
CC(C)(C)NCCCS(=O)(=O)O [BX, 3-(t-butyl)amino-1-propanesulfonic acid]	decreased	decreased	dramatic decrease		
O=S(=O)(O)CCCNC12CC3CC(CC(C3)C1)C2 [BW, 3-(1-adamantyl)amino-1-propanesulfonic acid]				dramatic decrease	dramatic decrease
